1 compound from the NIST ThermoML archive (doi:10.1016/j.fluid.2008.02.013) can be followed below.

The conditions of data set [1]: Crystal; DTA.
The nature of data set [2]: Molar enthalpy of transition or fusion. Conditions: Crystal; DSC.

Values joined by “and” are separate entries in the source; they are usually repeats but may differ in a detail not shown here. Equal entries are not always repeated. ± gives the expanded uncertainty stated by the source.

As to `C=C(C)[C@@H]1CC[C@]2(CO)CC[C@]3(C)[C@H](CC[C@@H]4[C@@]5(C)CC[C@H](O)C(C)(C)[C@@H]5CC[C@]43C)[C@@H]12` [betulin], the Normal melting temperature in data set [1] is 257.5 ± 2 °C and 255.0 ± 2 °C and 254.8 ± 2 °C. In addition, the “Molar enthalpy of transition or fusion” value in data set [2] was 12.4 kcal/mol and 12.8 kcal/mol and 13.2 kcal/mol.
